{"source": "paper PMC9369419", "about": "(International Journal of Molecular Sciences, 2022)", "key": {"GluK1": {"molecular_target": "T1, GluK1 (Rattus norvegicus, UniProt P22756)", "T1 construct": "made in house; host or cells: Sf9 insect cells (membranes)", "T1 sequence (P22756 31-949)": "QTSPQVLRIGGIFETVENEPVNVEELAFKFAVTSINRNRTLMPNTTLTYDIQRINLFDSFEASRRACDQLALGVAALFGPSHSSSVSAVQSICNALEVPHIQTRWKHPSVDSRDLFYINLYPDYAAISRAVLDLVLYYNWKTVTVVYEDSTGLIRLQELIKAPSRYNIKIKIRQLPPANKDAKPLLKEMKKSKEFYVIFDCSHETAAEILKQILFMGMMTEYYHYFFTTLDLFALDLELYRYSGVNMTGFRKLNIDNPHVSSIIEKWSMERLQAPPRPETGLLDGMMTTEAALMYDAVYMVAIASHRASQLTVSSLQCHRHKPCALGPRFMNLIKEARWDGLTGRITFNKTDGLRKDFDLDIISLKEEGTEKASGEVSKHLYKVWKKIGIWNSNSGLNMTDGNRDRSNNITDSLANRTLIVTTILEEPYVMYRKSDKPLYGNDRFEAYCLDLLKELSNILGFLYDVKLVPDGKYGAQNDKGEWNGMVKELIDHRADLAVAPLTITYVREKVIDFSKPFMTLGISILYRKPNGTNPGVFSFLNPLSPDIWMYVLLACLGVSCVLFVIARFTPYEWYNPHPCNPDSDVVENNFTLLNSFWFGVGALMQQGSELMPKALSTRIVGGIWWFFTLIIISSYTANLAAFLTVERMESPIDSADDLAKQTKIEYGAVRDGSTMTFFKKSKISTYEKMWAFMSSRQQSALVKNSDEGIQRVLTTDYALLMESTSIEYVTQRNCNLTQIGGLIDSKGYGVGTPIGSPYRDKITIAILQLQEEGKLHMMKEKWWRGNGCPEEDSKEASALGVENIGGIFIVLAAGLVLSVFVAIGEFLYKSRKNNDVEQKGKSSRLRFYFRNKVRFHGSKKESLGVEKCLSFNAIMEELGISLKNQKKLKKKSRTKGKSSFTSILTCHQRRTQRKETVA", "assay": "Radioligand binding at recombinant homomeric GluK1 in Sf9 membranes", "conditions": "recombinant rat homomeric receptor, [3H]-(S)-NF608, mean ± SEM", "method": "(§1) Ligand binding affinities at recombinant rat homomeric GluA2, GluK1−3, and GluK5 were determined as previously detailed. […] The filters were dried at 70 °C for 1 h, and 50 μL/well Microscint 20 (PerkinElmer, Waltham, MA, USA) was added. Radioactivity was detected with a TopCounter (PerkinElmer, Waltham, MA, USA). GluA2 and GluK5 assays were filtered on GF/C type filters using Millipore 12-well filtration manifolds (Merck Life Science, Søborg, Denmark) and washed twice with ice-cold assay buffer. Filters were placed in pony vials (PerkinElmer, Waltham, MA, USA), 3 mL of Ultima Gold scintillation fluid (PerkinElmer, Waltham, MA, USA) was added, and DPM (disintegrations per minute) were determined using a TriCarb 2900 scintillation counter (PerkinElmer, Waltham, MA, USA).\n(§2) All competition curves (n ≥ 3 per ligand) were determined in triplicate. Data were analyzed using GraphPad Prism 6 (GraphPad Software, San Diego, CA, USA) to determine ligand affinity (Ki) and Hill coefficient (nH) using the one-site Ki and four-parameter logistics equations, respectively."}, "GluK3": {"molecular_target": "T2, GluK3 (Rattus norvegicus, UniProt P42264)", "T2 construct": "made in house; host or cells: Sf9 insect cells (membranes)", "T2 sequence (P42264 32-919)": "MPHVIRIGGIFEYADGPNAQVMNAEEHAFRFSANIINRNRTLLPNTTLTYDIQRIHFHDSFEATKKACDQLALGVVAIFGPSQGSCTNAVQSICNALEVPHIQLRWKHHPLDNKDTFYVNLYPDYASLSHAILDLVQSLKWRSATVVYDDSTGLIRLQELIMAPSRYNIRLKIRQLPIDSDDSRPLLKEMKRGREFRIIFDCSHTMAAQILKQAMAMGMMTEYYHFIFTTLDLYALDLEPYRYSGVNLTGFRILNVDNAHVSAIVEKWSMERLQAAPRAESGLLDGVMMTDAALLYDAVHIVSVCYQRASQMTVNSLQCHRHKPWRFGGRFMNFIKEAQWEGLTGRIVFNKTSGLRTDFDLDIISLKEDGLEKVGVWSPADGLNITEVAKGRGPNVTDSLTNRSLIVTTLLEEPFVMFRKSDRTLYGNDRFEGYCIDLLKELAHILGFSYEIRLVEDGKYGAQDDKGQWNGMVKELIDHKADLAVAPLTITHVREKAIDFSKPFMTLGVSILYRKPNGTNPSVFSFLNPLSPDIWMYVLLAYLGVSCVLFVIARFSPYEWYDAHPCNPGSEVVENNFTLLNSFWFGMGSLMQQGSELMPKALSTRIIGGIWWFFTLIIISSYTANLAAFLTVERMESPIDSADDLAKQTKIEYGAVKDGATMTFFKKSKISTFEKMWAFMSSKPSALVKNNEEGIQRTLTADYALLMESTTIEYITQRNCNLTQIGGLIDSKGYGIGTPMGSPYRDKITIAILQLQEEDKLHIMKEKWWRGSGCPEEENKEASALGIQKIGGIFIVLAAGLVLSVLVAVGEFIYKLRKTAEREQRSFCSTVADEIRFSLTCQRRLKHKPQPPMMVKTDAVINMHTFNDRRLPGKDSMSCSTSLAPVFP", "assay": "Radioligand binding at recombinant homomeric GluK3 in Sf9 membranes", "conditions": "recombinant rat homomeric receptor, [3H]-kainic acid, mean ± SEM", "method": "as §1, §2"}, "GluK3a": {"molecular_target": "T3, GluK3a (Rattus norvegicus, UniProt P42264)", "T3 construct": "expressed in transfected cells", "T3 sequence (P42264 32-919)": "as above", "assay": "Intracellular Ca2+ imaging assay, HEK293 cells expressing GluK3a", "assay_type": "cell-based", "from_the_text": "For the determination of antagonistic activity of compounds at GluK1, GluK3 and GluA2 receptors, stable HEK293 cell lines expressing rat GluK1b(Q), GluK3a, and GluA2(Q)i were created. A polyclonal stable cell line expressing GluK3a was created as described previously. For the creation of polyclonal stable cell lines expressing GluK1and GluA2 receptors, cDNA encoding blasticidin-S deaminase (blas) enzymes were inserted into the pIRES plasmid vector (Clontech, Mountain View, CA, USA) to create the plasmid vector pRES(blas). Subsequently, cDNA for rat GluK1(Q)1b and the flip isoform of rat GluA2(Q)i were inserted into pRES(blas) to create the expression constructs GluK1b(Q)pIRES(blas) and GluA2i(Q)pIRES(blas), respectively. These were used to transfect GripTite^TM HEK293 cells followed by selecting with 20 µg/mL blasticidin (Invivogen, Toulouse, France) and 0.50 mg/mL geneticin in the presence of 20 µM of the AMPA receptor antagonist CNQX (Tocris, Bristol, UK) until stably transfected GluK1b(Q) and GluA2(Q)i cell lines were obtained. For functional assays, cells were plated into clear-bottomed, black 96-well fluorescence culture plates (Corning, Vordingborg, Denmark), and when >70% confluent, the cells were loaded with 2 μM Fluo 4-AM calcium sensitive dye (Abcam, Cambridge, UK) and used for the imaging of agonist-evoked changes in intracellular Ca^2+ using a FlexStation I plate reader (Molecular Devices, San Jose, CA, USA). […] Changes in dye fluorescence in response to the addition of an agonist solution were then measured at 538 nm using excitation at 485 nm and emission cut-off at 515 nm. Baseline fluorescence was measured for 16 s before the addition of 50 µL agonist solution to each well of the assay plate, and fluorescence was measured for 120 to 160 s after addition of the agonists. Peak change in fluorescence was calculated as the difference between the maximal observed increase in fluorescence and pre-agonist baseline fluorescence. The agonist solutions contained 100 µM KA together with 300 µM of the KAR positive allosteric modulator BPAM344 (Sigma-Aldrich Chemical, St. Louis, MO, USA) for GluK1 and GluK3 experiments or 100 µM glutamate together with 100 µM of the AMPAR positive allosteric modulator cyclothiazide for GluA2 experiments (HelloBio, Bristol, UK). Responses were determined in at least triplicate at each compound concentration."}, "GluA2(Q)i": {"molecular_target": "T4, GluA2(Q)i (Rattus norvegicus, UniProt P19491)", "T4 construct": "expressed in transfected cells", "T4 sequence (P19491 22-883 isoform P19491-2 limits assumed)": "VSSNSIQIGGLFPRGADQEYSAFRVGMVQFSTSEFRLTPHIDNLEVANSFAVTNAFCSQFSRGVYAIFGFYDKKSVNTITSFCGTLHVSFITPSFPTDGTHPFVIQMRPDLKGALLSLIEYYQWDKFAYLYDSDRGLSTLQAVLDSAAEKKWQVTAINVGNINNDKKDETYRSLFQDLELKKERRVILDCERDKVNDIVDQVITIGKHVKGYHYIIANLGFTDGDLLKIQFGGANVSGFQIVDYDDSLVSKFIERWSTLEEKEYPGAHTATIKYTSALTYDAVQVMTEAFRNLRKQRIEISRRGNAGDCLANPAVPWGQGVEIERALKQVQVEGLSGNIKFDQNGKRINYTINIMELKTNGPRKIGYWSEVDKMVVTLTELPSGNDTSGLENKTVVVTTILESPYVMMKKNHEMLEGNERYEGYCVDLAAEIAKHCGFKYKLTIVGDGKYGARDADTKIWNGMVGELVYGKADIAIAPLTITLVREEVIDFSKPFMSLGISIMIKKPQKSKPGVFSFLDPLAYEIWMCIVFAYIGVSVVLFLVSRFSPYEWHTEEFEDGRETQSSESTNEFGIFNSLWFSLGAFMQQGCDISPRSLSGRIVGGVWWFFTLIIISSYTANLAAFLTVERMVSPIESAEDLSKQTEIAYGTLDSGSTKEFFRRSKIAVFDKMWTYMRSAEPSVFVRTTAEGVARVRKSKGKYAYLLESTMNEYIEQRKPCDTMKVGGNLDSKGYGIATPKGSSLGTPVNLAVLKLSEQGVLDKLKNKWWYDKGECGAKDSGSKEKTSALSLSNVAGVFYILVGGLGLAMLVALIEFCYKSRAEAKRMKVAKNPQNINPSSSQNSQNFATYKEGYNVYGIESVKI", "assay": "Intracellular Ca2+ imaging assay, HEK293 cells expressing GluA2(Q)i", "assay_type": "cell-based", "conditions": "10 µM compound, Ca2+ fluorescence, read-out: inhibition of agonist-evoked responses at GluA2", "from_the_text": "(§3) For the determination of antagonistic activity of compounds at GluK1, GluK3 and GluA2 receptors, stable HEK293 cell lines expressing rat GluK1b(Q), GluK3a, and GluA2(Q)i were created. A polyclonal stable cell line expressing GluK3a was created as described previously. For the creation of polyclonal stable cell lines expressing GluK1and GluA2 receptors, cDNA encoding blasticidin-S deaminase (blas) enzymes were inserted into the pIRES plasmid vector (Clontech, Mountain View, CA, USA) to create the plasmid vector pRES(blas). […] For functional assays, cells were plated into clear-bottomed, black 96-well fluorescence culture plates (Corning, Vordingborg, Denmark), and when >70% confluent, the cells were loaded with 2 μM Fluo 4-AM calcium sensitive dye (Abcam, Cambridge, UK) and used for the imaging of agonist-evoked changes in intracellular Ca^2+ using a FlexStation I plate reader (Molecular Devices, San Jose, CA, USA). […] Changes in dye fluorescence in response to the addition of an agonist solution were then measured at 538 nm using excitation at 485 nm and emission cut-off at 515 nm. Baseline fluorescence was measured for 16 s before the addition of 50 µL agonist solution to each well of the assay plate, and fluorescence was measured for 120 to 160 s after addition of the agonists. […] Responses were determined in at least triplicate at each compound concentration."}, "GluK1b(Q)": {"molecular_target": "T5, GluK1b(Q) (Rattus norvegicus, UniProt P22756)", "T5 construct": "expressed in transfected cells", "T5 sequence (P22756 31-920 isoform P22756-4 limits assumed)": "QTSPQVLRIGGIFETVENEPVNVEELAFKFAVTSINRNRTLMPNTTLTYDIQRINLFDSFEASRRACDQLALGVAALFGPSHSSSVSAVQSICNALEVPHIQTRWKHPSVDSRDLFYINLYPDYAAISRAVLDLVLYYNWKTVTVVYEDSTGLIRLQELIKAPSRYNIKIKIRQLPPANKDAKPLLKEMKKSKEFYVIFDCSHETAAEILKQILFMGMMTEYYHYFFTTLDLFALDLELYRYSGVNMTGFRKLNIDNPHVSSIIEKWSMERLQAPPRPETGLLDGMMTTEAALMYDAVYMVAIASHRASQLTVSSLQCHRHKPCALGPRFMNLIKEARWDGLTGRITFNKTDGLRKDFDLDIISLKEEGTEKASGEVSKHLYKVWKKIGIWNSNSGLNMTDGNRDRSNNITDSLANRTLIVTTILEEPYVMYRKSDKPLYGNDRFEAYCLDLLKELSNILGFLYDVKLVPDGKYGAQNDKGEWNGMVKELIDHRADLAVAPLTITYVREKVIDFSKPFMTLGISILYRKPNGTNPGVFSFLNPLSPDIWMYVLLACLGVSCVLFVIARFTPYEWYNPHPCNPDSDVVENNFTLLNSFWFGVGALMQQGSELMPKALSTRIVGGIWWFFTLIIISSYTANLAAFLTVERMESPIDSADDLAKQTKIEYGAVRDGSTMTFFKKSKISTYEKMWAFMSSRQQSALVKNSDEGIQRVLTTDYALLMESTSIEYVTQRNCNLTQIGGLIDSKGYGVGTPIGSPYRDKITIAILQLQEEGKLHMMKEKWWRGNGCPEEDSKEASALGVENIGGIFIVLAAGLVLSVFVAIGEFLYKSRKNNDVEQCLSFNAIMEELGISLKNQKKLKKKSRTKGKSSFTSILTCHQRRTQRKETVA", "assay": "Intracellular Ca2+ imaging assay, HEK293 cells expressing GluK1b(Q)", "assay_type": "cell-based", "conditions": "10 µM compound, Ca2+ fluorescence, read-out: inhibition of agonist-evoked responses at GluK1", "from_the_text": "as §3"}}}
{"smiles": "O=C(Nn1c(=O)c(=O)[nH]c2cc(C#Cc3cnc4cccnn34)ccc21)c1ccccc1", "note": "[Compound 28]", "values": [{"measurement": "Ki", "setting": "GluK1", "result": "~100", "unit": "µM"}, {"measurement": "Ki", "setting": "GluK3", "result": "0.25 ± 0.01", "unit": "µM"}, {"measurement": "inhibition of agonist-evoked responses at GluK3", "setting": "GluK3a; 10 µM compound, Ca2+ fluorescence", "result": "full inhibition"}, {"measurement": "IC50", "setting": "GluK3a; 100 µM KA + 300 µM BPAM344, Ca2+ fluorescence, read-out: IC50, antagonism of agonist-evoked responses at GluK3", "result": 3.6, "unit": "µM"}, {"measurement": "melting point", "result": "314 to 315", "unit": "°C"}, {"measurement": "inhibition at 10 µM", "setting": "GluA2(Q)i", "result": "< 5", "unit": "%"}, {"measurement": "inhibition at 10 µM", "setting": "GluK1b(Q)", "result": "< 5", "unit": "%"}]}
